{"source": "patent US20090054507A1", "about": "“CONTROL OF MALIGNANT CELLS BY KINASE INHIBITION” (CLEVELAND STATE UNIVERSITY, priority 2006, published 2009)", "key": {"MEG-01 cells": {"tested_on": "MEG-01 cells", "assay": "Thrombocytopoiesis / proplatelet formation by microscopy", "format": "cell-based, human", "experimental": "Light microscopy (phase contrast) and DAPI fluorescence microscopy. High quality pictures and live imaging were obtained at Cleveland Clinic Imaging Core (Cleveland, Ohio). DAPI staining of cultured MEG-01 cells was performed with fresh cells. For live imaging (observing a single cell for a 24 hour period of time) of the thrombocytopoiesis process, MEG-01 suspension cells were made adherent by using Fibronectin (FN) coated culture dishes. FN was used, at 5 μg/cm^2 and incubated at 37° C. for 1 h, as recommended by the supplier (BD Biosciences, Bedford, Mass., USA).\nScanning electron microscopy (SEM). Cell preparation and pictures were performed at the Microscopy Core Facility (Cleveland Clinic). Cells were grown for 4 days in the presence of 10 μM DMAT and then collected by differential centrifugation. Cells were fixed in glutaraldehyde and then further processed at the Core. The clot was prepared with platelets collected from MEG-01 cultures treated with 10 μM DMAT. Human thrombin 0.5 U/ml for 15 minutes was used to activate them."}, "MEG-01 xenografts [1]": {"tested_on": "MEG-01 xenografts", "assay": "In vivo therapy of MEG-01 xenografts, tumor volume", "set-up": "species or system mice", "conditions": "for tumor volume: subcutaneous in the neck, 2 weeks", "from_the_text": "Creation of MEG-01 xenografts. Immunodeficient male athymic nude nu/nu mice were used, provided and housed by Dr. Lindner, D J from Taussig Cancer Center, Cleveland Clinic and Case Western Reserve University. The mice were checked every day. The mice were housed in filtered air flow cabinets with autoclaved bedding at a density of 5 mice/cage. They were fed autoclaved Purina Lab Rodent Chow® 5010 and HCl-acidified distilled water ad libitum and were placed in rooms with controlled temperature, humidity and 12-hr light-dark cycles. Procedures involving animals and their care were conducted in conformity with the institutional guidelines that are in compliance with national and international laws and policies (EEC Council Directive 86/609, OJL 358, Dec. 1, 1987, and the National Institutes of Health Guide for the Care and Use of Laboratory, Animals, NIH Publication 85-23, 1985).\nFor engraftment, cells in cell culture media were injected. MEG-01 myeloid blast crisis cells (10×10^6 cells/100 μl in cell culture media (RPMI 1640 1×, 10% FBS) were injected subcutaneously into the lower flanks of mice (left and right). Cells were counted with a hemacytometer using Trypan blue (only live cells were counted).\nAfter 10 days the mice developed tumors large enough to start the treatment. Tumors were visible after 6-7 days from inoculation. The average weight of the mice typically ranged 30-35 g. Treatment with DMAT was started when tumors were at least 100-200 mm^3 volumes (prolate spheroid). Tumor volumes were calculated as prolate spheroid (4/3*π*(a)^2*(b), where “2a” is the minor axis and “2b” is the major axis of the prolate spheroid. “2a” and “2b” were measured with a caliper (mm). Animals were treated with DMAT for approximately 2 weeks. When tumor volumes reached a size unacceptable with the IACUC protocols, animals were sacrificed in a CO2 euthanasia chamber. Tumors were collected for further histological analysis. […]\nIn vivo therapy with DMAT of MEG-01 xenografts. […] Tumor diameters were measured using a caliper and tumor volume was calculated using the prolate-spheroid formula. […]"}, "MEG-01 xenografts [2]": {"tested_on": "MEG-01 xenografts", "assay": "Blood counts in MEG-01 xenograft mice", "format": "in vivo", "experimental": "At the end of the trial, tail-bleeding times assay was performed and blood was collected for blood counts from live and anesthetized mice. After these experiments were completed mice were sacrificed and tumors and organs were collected. Samples were fixed in formalin for further processing.\nMice blood collection and blood counts. Blood counts are dependent upon the method and time of blood collection. Whole blood was collected from the retro-orbital sinus (under the eye) of anesthesiated mice (both DMSO treated and DMAT treated batch). EDTA and prostaglandin E1 (PGE1) were used at collection to prevent clotting during blood collection. 500 μl mice whole blood with 100 μl anticoagulant were used for counting (a 1:5 dilution). A hematological analyzer was used for this. Samples were compared (gated) with normal mice (C57BL strain)."}, "MCF-7 cells": {"tested_on": "MCF-7 cells", "assay": "Anchorage independence in soft agar, MCF-7", "format": "cell-based, human", "conditions": "DMAT 10 μM, one week"}, "WM-164 cells": {"tested_on": "WM-164 cells", "assay": "Annexin V apoptosis/necrosis assay, WM-164", "format": "cell-based, human", "experimental": "Apoptosis Assays using Flow Cytometry with Annexin V-FITC and propidium iodide (PI). For induction of typical apoptosis, cells were grown in the presence of 1 μM staurosporine (Sigma-Aldrich) for 6 hours. The staurosporine treated cells were stained as follows: control 1 with PI, control 2 with Annexin V-FITC and control 3 both PI and Annexin V-FITC in order to have the brightest controls for compensation and proper collection of the flow cytometry data. Cell necrosis was induced by heat shock (65° C. for 30 minutes). The stained control, both PI and Annexin V-FITC labeled, was then used as the reference in establishing the level of apoptosis induced by the treatments. Data was collected on logarithmic modes, two-colors. Annexin V-FITC corresponds to FL1 H channel, and PI to FL3H or FL2H channels.\nAnnexin V-FITC and PI apoptosis assay staining protocol. Apoptosis Annexin V-FITC and PI kit from BD Biosciences, CA, USA, was used. 10^5-10^6 cells were stained with 50 μg/ml PI and with 0.5 μg/ml FITC-labeled Annexin V using the staining protocol provided by the supplier. Samples were then analyzed immediately by flow cytometry."}, "[3]": {"conditions": "25 mg/kg twice daily, injections in mice; cited from earlier work"}}, "data": [{"smiles": "CN(C)c1nc2c(Br)c(Br)c(Br)c(Br)c2[nH]1", "note": "[DMAT, 2-dimethylamino-4,5,6,7-tetrabromo-1H-benzimidazole]", "values": [{"measurement": "thrombocytopoiesis", "setting": "MEG-01 cells", "value": "induced thrombocytopoiesis"}, {"measurement": "proplatelet formation", "setting": "MEG-01 cells; 10 μM DMAT, as early as from the second day", "value": "form proplatelet extensions"}, {"measurement": "tumor volume", "setting": "MEG-01 xenografts [1]; DMAT 2 mg (in DMSO) per animal per day", "value": "proliferation arrest in vivo in large tumors and tumor ablation in small tumors"}, {"measurement": "tumor volume", "setting": "MEG-01 xenografts [1]; DMAT 3 mg (in DMSO) per animal per day", "value": "proliferation arrest in vivo for large tumors and tumor ablation in small tumors"}, {"measurement": "response of xenograft tumors to treatment (summary)", "setting": "MEG-01 xenografts [1]; mouse, in vivo", "value": "tumor ablation"}, {"measurement": "platelet counts", "setting": "MEG-01 xenografts [2]; DMAT 50 μl/day of 125 mg, compared to a control", "value": "increase in platelet counts"}, {"measurement": "percentage of abnormal cells in blood counts", "setting": "MEG-01 xenografts [2]; DMAT treated vs DMSO control", "value": "the control has higher percentages of abnormal cells"}, {"measurement": "colonies in soft agar", "setting": "MCF-7 cells", "value": "much smaller and fewer colonies"}, {"measurement": "level of necrotic cells", "setting": "WM-164 cells; 10 μM DMAT, 24 hours, control 4.8%", "value": 2.0, "unit": "%"}, {"measurement": "level of apoptotic cells", "setting": "WM-164 cells; 10 μM DMAT, 24 hours, control 16.9%", "value": 36.8, "unit": "%"}, {"measurement": "level of apoptic cells", "setting": "WM-164 cells; 20 μM DMAT", "value": 26.8, "unit": "%"}, {"measurement": "level of necrotic cells", "setting": "WM-164 cells; 20 μM DMAT", "value": 4.1, "unit": "%"}, {"measurement": "effect on the kidney, bone marrow, and liver as assessed histologically", "setting": "[3]", "value": "had no effect"}]}]}
